Literature values in patent US11517526B2, “Stabilised hypochlorous solutions and their medical cosmetic uses” (Clinical Health Technologies Ltd, priority 2019, dated 2022).

How the values were obtained:
[1] = natural state, unless stabilised

half-life [1]: 48 h
SMILES: OCl [hypochlorous acid (HOCl), hypochlorous acid]
effectiveness as an antimicrobial relative to hypochlorite (OCl−) (microbes): 80-100 times
